One experiment concerns the target Serine protease 1 (Homo sapiens, UniProt P07477). Kind of experiment: In vitro inhibition of trypsin.
The next experiment has as its target Prothrombin (Homo sapiens, UniProt P00734). Kind of experiment: In vitro inhibition of thrombin.
The next experiment concerns the target Plasminogen (Homo sapiens, UniProt P00747). The experiment is described as follows: In vitro inhibition of Plasmin.
The target in a further experiment is Coagulation factor X (Homo sapiens, UniProt P00742). The experiment is described as follows: In vitro inhibition of Coagulation factor Xa.
Experiment [1] addresses T1, Urokinase-type plasminogen activator (Homo sapiens, UniProt P00749). Kind of experiment: In vitro inhibition of plasminogen activator urokinase.
In experiment [2] the target is T1, Urokinase-type plasminogen activator.

pKi: −log10 of the molar value. A value given as a limit tells only on which side of the number the result lay.

Sequence of Coagulation factor X (P00742 41-179 limits assumed): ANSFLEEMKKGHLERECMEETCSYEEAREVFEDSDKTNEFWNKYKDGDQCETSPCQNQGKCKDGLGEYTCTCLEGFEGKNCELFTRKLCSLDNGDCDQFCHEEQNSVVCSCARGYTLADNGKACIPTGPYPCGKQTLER
Sequence of Coagulation factor X (P00742 235-488 limits assumed): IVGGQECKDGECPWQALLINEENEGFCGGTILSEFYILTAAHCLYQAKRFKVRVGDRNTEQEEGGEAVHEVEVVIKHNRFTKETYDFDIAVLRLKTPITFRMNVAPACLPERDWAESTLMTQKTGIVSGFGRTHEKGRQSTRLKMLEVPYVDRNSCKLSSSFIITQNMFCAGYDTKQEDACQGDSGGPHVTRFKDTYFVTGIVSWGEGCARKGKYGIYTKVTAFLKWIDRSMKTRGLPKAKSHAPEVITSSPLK
Sequence of Plasminogen (P00747 97-580 limits assumed): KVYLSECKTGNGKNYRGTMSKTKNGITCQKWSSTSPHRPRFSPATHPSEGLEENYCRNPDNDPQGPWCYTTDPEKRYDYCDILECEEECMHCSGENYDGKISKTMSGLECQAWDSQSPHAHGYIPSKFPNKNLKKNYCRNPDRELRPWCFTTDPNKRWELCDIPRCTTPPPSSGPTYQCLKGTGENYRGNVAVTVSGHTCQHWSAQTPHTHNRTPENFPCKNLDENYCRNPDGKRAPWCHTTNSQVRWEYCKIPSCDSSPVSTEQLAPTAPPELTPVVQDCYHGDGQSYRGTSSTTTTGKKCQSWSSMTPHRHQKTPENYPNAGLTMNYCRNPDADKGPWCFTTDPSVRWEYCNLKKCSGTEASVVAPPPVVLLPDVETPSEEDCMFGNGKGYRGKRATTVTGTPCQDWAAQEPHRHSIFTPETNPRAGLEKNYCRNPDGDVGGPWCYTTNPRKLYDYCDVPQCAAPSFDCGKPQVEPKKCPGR
Sequence of Plasminogen (P00747 581-810 limits assumed): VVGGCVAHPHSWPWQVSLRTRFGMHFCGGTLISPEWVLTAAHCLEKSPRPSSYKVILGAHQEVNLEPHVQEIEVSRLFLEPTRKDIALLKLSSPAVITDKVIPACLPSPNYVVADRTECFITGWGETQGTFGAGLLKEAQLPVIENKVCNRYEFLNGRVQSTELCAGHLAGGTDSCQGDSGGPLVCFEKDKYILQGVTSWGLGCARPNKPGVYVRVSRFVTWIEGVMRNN
Sequence of Serine protease 1 (P07477 whole entry): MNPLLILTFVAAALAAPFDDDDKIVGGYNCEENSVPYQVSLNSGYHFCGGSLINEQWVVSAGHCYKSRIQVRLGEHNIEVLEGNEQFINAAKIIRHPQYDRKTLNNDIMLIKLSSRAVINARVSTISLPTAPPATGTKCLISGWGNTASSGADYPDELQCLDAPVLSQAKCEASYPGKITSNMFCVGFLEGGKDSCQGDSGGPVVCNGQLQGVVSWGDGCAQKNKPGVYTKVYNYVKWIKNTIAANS

By pKi is commonly meant the Ki on a negative log10 scale, so that one unit is a factor of ten. Low readings indicate a high Ki, high ones a low Ki. Take `N=C(N)c1ccc(CNC(=O)CNS(=O)(=O)c2ccc3ccccc3c2)cc1`: the pKi on Serine protease 1 was 6.19; at Prothrombin, 4.80; at Plasminogen, 4.37; on Coagulation factor X, 4.97.
In the case of `CC(C)c1cc(S(=O)(=O)N[C@H](CO)C(=O)NCC(=O)NCc2ccc(C(=N)N)cc2)cc(C(C)C)c1C(C)C`, the pKi on Serine protease 1 is 5.47; at Prothrombin, 4.82; at Plasminogen, 4.12; in experiment [1] it was 5.82; at Coagulation factor X it was 4.00.
For `N/C(=N\O)c1ccc(CNC(=O)CNC(=O)[C@@H](CO)NS(=O)(=O)Cc2ccccc2)cc1`, the pKi at Serine protease 1, on Prothrombin, at Plasminogen and on Coagulation factor X was less than 3.00 in each case.
As to `C[C@H](NC(=O)[C@@H](CO)NS(=O)(=O)Cc1ccccc1)C(=O)NCc1ccc(C(=N)N)cc1`, the pKi is 8.48 at Serine protease 1, 6.96 at Prothrombin, 6.27 on Plasminogen and 5.68 at Coagulation factor X.
Take `N=C(N)c1ccc(CNC(=O)CNC(=O)[C@@H](CO)NS(=O)(=O)CC2CCCCC2)cc1`: the negative-log Ki (pKi) on Serine protease 1 is 6.96; at Prothrombin it was 5.00; on Plasminogen, 4.77; on Coagulation factor X, 5.70.
With `N=C(N)c1ccc(CNC(=O)CNC(=O)[C@@H](CO)NS(=O)(=O)Cc2ccccc2)cc1`, the results for the pKi at Serine protease 1, at Prothrombin and on Coagulation factor X were 6.82, 4.89 and 5.52, respectively.
Regarding `N=C(N)c1ccc(CNC(=O)[C@H]2CCCN2C(=O)[C@@H](CO)NS(=O)(=O)Cc2ccccc2)cc1`, the negative-log Ki (pKi) was 8.49 at Serine protease 1, 7.92 at Prothrombin, 6.82 on Plasminogen and 5.70 on Coagulation factor X.
The like results for `COC(=O)OC[C@@H](NS(=O)(=O)Cc1ccccc1)C(=O)NCC(=O)NCc1ccc(C(=N)N)cc1` were, in that order, 7.19, 5.52, 4.96 and 6.47.
In experiment [2], `C[C@H](NC(=O)[C@@H](CO)NS(=O)(=O)CCc1ccccc1)C(=O)N[C@H]1CCCN(C(=N)N)C1O` (stereo partly drawn) showed a pKi of 5.51.
In the case of `CC(C)(C)OC(=O)NC(CCC(=O)O)C(=O)NCC(=O)NCc1ccc(C(=N)N)cc1` (stereo not drawn), the pKi is 5.55 at Serine protease 1; less than 3.00 at Prothrombin; less than 3.00 at Plasminogen; 4.09 in experiment [1]; less than 3.00 at Coagulation factor X.
With `N=C(N)c1ccc(CNC(=O)CNC(=O)[C@H](N)CO)cc1`, the pKi at Serine protease 1 was 5.16; at Prothrombin, 3.70; on Plasminogen it was less than 3.00; on Coagulation factor X, less than 3.00.
As for `N=C(N)c1ccc(CNC(=O)CNC(=O)[C@@H](N)CCC(=O)O)cc1`, the pKi on Serine protease 1 was 5.30; at Prothrombin, less than 3.00; on Plasminogen, less than 3.00; in experiment [1] it was 4.66; at Coagulation factor X, less than 3.00.
Regarding `N=C(N)c1ccc(CNC(=O)CNC(=O)[C@@H](N)CO)cc1`, the pKi was 5.15 at Serine protease 1, less than 3.00 on Prothrombin, less than 3.00 on Plasminogen and less than 3.00 at Coagulation factor X.
For `CC(C)COC(=O)OC[C@@H](NS(=O)(=O)Cc1ccccc1)C(=O)NCC(=O)NCc1ccc(C(=N)N)cc1`, the pKi at Serine protease 1 was 6.92; on Prothrombin it was 5.40; on Plasminogen, 5.62.
Turning to `N=C(N)c1ccc(CNC(=O)CNC(=O)[C@@H](CO)NS(=O)(=O)c2ccc3ccccc3c2)cc1`, the pKi at Serine protease 1 is 5.74; on Prothrombin, 4.96; at Plasminogen, 4.49; in experiment [1] it was 5.92; at Coagulation factor X it was 4.55.
With `CC(=O)N[C@H](CO)C(=O)NCC(=O)NCc1ccc(C(=N)N)cc1`, the pKi on Serine protease 1 is 4.85; on Prothrombin, less than 3.00; on Plasminogen, less than 3.00; at Coagulation factor X it was less than 3.00.
As to `CC(C)(C)OC(=O)N[C@@H](CO)C(=O)NCC(=O)NCc1ccc(C(=N)N)cc1`, the pKi at Serine protease 1 was 5.47; on Prothrombin, 4.16; at Plasminogen, 3.68; at Coagulation factor X it was 3.96.
As for `N=C(N)c1ccc(CNC(=O)CNC(=O)[C@@H](CO)NS(=O)(=O)/C=C/c2ccccc2)cc1`, the pKi on Serine protease 1 is 5.77; at Prothrombin, 4.82; at Plasminogen it was 3.85; in experiment [1], 5.66; on Coagulation factor X it was 4.82.
In the case of `N=C(N)c1ccc(CNC(=O)CNC(=O)[C@@H](CO)NS(=O)(=O)CCc2ccccc2)cc1`, the negative-log Ki (pKi) at Serine protease 1 is 6.05; at Prothrombin, 4.48; at Plasminogen, 4.23; in experiment [1], 6.31; at Coagulation factor X, 4.55.
For the compound `N=C(N)c1ccc(CNC(=O)CNC(=O)[C@@H](CO)NC(=O)OCc2ccccc2)cc1`, the pKi is 5.37 on Serine protease 1; 3.64 on Prothrombin; 3.80 on Plasminogen; 5.40 in experiment [1]; 3.85 at Coagulation factor X.
The like results for `CC(C)COC(=O)OC[C@@H](NS(=O)(=O)Cc1ccccc1)C(=O)N[C@@H](C)C(=O)NCc1ccc(C(=N)N)cc1` were, in that order, 8.32, 7.30, 6.82, 7.37 and 6.39.
The like results for `CC(C)(C)OC(=O)N[C@H](CO)C(=O)NCC(=O)NCc1ccc(C(=N)N)cc1` were, in that order, 5.35, 3.77, less than 3.00, 5.05 and 3.85.
Consider `CC(NS(=O)(=O)c1ccc2ccccc2c1)C(=O)NCc1ccc(C(=N)N)cc1` (single isomer, unassigned; (-)), for which the pKi in experiment [1] is 5.02.
